In the NIST ThermoML archive (doi:10.1016/j.fluid.2004.11.021):

Experiment: xn = mol fraction of the nth substance listed
Settings: Fluid (supercritical or subcritical phases), Other PVT measurement

[N-]=[N+]=O [nitrous oxide] + FCF
Settings	molar volume [m3/mol]
283.32 K, 2978.6 kPa, x1 = 0.8042	0.000562
288.38 K, 3087.3 kPa, x1 = 0.8042	0.000562
293.46 K, 3188.3 kPa, x1 = 0.8042	0.000563
298.54 K, 2796 kPa, x1 = 0.5068	0.000644
298.6 K, 3286 kPa, x1 = 0.8042	0.000563
303.68 K, 2903.7 kPa, x1 = 0.5068	0.000644
303.68 K, 2988.3 kPa, x1 = 0.4207	0.000594
303.68 K, 3381.2 kPa, x1 = 0.8042	0.000563
308.76 K, 3475.8 kPa, x1 = 0.8042	0.000563
308.77 K, 2774.4 kPa, x1 = 0.2255	0.000631
308.77 K, 2991.7 kPa, x1 = 0.5068	0.000645
308.77 K, 3091.8 kPa, x1 = 0.4207	0.000594
313.85 K, 3190.6 kPa, x1 = 0.4207	0.000595
313.85 K, 3569.2 kPa, x1 = 0.8042	0.000563
313.86 K, 2875.7 kPa, x1 = 0.2255	0.000631
313.87 K, 3078.9 kPa, x1 = 0.5068	0.000645
318.94 K, 3288.2 kPa, x1 = 0.4207	0.000595
318.94 K, 3661.8 kPa, x1 = 0.8042	0.000563
318.95 K, 2971.2 kPa, x1 = 0.2255	0.000631
318.95 K, 3164.6 kPa, x1 = 0.5068	0.000645
324.03 K, 3384.5 kPa, x1 = 0.4207	0.000595
324.03 K, 3753.8 kPa, x1 = 0.8042	0.000563
324.04 K, 3064.8 kPa, x1 = 0.2255	0.000631
324.04 K, 3249.6 kPa, x1 = 0.5068	0.000645
329.13 K, 3157.2 kPa, x1 = 0.2255	0.000632
329.13 K, 3845.1 kPa, x1 = 0.8042	0.000563
329.14 K, 3334.1 kPa, x1 = 0.5068	0.000645
329.14 K, 3479.7 kPa, x1 = 0.4207	0.000595
334.22 K, 3248.1 kPa, x1 = 0.2255	0.000632
334.22 K, 3573.4 kPa, x1 = 0.4207	0.000595
334.23 K, 3417.4 kPa, x1 = 0.5068	0.000645
334.23 K, 3935.9 kPa, x1 = 0.8042	0.000564
339.33 K, 3338.3 kPa, x1 = 0.2255	0.000632
339.33 K, 3500 kPa, x1 = 0.5068	0.000645
339.34 K, 3666.5 kPa, x1 = 0.4207	0.000595
339.35 K, 4026.2 kPa, x1 = 0.8042	0.000564
344.43 K, 3581.9 kPa, x1 = 0.5068	0.000646
344.43 K, 3758.3 kPa, x1 = 0.4207	0.000595
344.43 K, 4115.4 kPa, x1 = 0.8042	0.000564
344.44 K, 3427.2 kPa, x1 = 0.2255	0.000632
353.6 K, 3922.3 kPa, x1 = 0.4207	0.000596
354.61 K, 3602.1 kPa, x1 = 0.2255	0.000632
354.62 K, 4293 kPa, x1 = 0.8042	0.000564

CF [fluoromethane] + [N-]=[N+]=O
Settings	molar volume [m3/mol]
263.02 K, 2088.5 kPa, x2 = 0.6161	0.000766
263.03 K, 1936.1 kPa, x2 = 0.508	0.000863
267.98 K, 1999.2 kPa, x2 = 0.508	0.000863
268 K, 2048.2 kPa, x2 = 0.3047	0.00074
268 K, 2223.9 kPa, x2 = 0.6161	0.000766
272.89 K, 2060.3 kPa, x2 = 0.508	0.000863
272.98 K, 2295.8 kPa, x2 = 0.6161	0.000766
273.01 K, 2223.5 kPa, x2 = 0.3047	0.000741
273.05 K, 1878.4 kPa, x2 = 0.1467	0.000909
277.86 K, 2121 kPa, x2 = 0.508	0.000863
282.81 K, 2371.8 kPa, x2 = 0.3047	0.000741
282.83 K, 1994.7 kPa, x2 = 0.1467	0.000909
283.04 K, 2438 kPa, x2 = 0.6161	0.000767
287.8 K, 4359.8 kPa, x2 = 0.8263	0.000305
288.08 K, 2242.8 kPa, x2 = 0.508	0.000864
292.79 K, 2109.4 kPa, x2 = 0.1467	0.00091
292.93 K, 4761.6 kPa, x2 = 0.8263	0.000305
292.96 K, 2512.2 kPa, x2 = 0.3047	0.000741
293.07 K, 2574.6 kPa, x2 = 0.6161	0.000767
298.08 K, 2168.4 kPa, x2 = 0.1467	0.00091
298.09 K, 2358.5 kPa, x2 = 0.508	0.000864
298.11 K, 2642.6 kPa, x2 = 0.6161	0.000767
298.17 K, 2591.9 kPa, x2 = 0.3047	0.000741
302.97 K, 5179 kPa, x2 = 0.8263	0.000305
307.96 K, 5380.9 kPa, x2 = 0.8263	0.000305
308.05 K, 2279.3 kPa, x2 = 0.1467	0.00091
308.06 K, 2474.5 kPa, x2 = 0.508	0.000865
308.13 K, 2731.2 kPa, x2 = 0.3047	0.000742
308.15 K, 2774.9 kPa, x2 = 0.6161	0.000768
312.91 K, 5577.9 kPa, x2 = 0.8263	0.000305
318.05 K, 2388.7 kPa, x2 = 0.1467	0.000911
318.11 K, 2867.7 kPa, x2 = 0.3047	0.000742
318.12 K, 2588.2 kPa, x2 = 0.508	0.000865
318.12 K, 2904.6 kPa, x2 = 0.6161	0.000768
328.03 K, 2496.3 kPa, x2 = 0.1467	0.000911
328.09 K, 3033 kPa, x2 = 0.6161	0.000768
328.1 K, 3002.9 kPa, x2 = 0.3047	0.000742
328.11 K, 2699.9 kPa, x2 = 0.508	0.000865
338.08 K, 2810.2 kPa, x2 = 0.508	0.000866
338.08 K, 3160 kPa, x2 = 0.6161	0.000769
338.09 K, 2603.1 kPa, x2 = 0.1467	0.000912
338.09 K, 3135.8 kPa, x2 = 0.3047	0.000743
347.94 K, 2707 kPa, x2 = 0.1467	0.000912
348.05 K, 3285.8 kPa, x2 = 0.6161	0.000769
348.06 K, 2919.8 kPa, x2 = 0.508	0.000866
348.06 K, 3267 kPa, x2 = 0.3047	0.000743
354.94 K, 2779.9 kPa, x2 = 0.1467	0.000912
358.03 K, 3396.5 kPa, x2 = 0.3047	0.000743
358.03 K, 3410.5 kPa, x2 = 0.6161	0.000769
358.05 K, 3028.8 kPa, x2 = 0.508	0.000867
